Columns and labels:
physchem = settings: octanol/water
in vitro = settings: human, hepatocytes
[1] = Clearance in mouse; format: ADME, organism-based; settings: in vivo
[2] = Oral bioavailability in rat; format: ADME, organism-based; settings: in vivo
[3] = Intrinsic clearance in mouse hepatocytes assessed per million of cells; format: ADME, cell-based, Hepatocyte; settings: read-out: CLH
[4] = Oral bioavailability in mouse; format: ADME, organism-based; settings: in vivo
[5] = Clearance in rat; format: ADME, organism-based; settings: in vivo
[6] = Intrinsic clearance in dog hepatocytes assessed per million of cells; format: ADME, cell-based, Canis lupus familiaris, Hepatocyte; settings: read-out: CLH
[7] = Volume of distribution at steady state in dog; format: ADME, organism-based, Canis lupus familiaris; settings: in vivo, read-out: Vdss
[8] = Oral bioavailability in dog; format: ADME, organism-based, Canis lupus familiaris; settings: in vivo
[9] = Half life in mouse; format: ADME, organism-based; settings: in vivo
[10] = Half life in rat; format: ADME, organism-based; settings: in vivo
[11] = Half life in dog; format: ADME, organism-based, Canis lupus familiaris; settings: in vivo
[12] = Intrinsic clearance in rat hepatocytes assessed per million of cells; format: ADME, cell-based, Hepatocyte; settings: read-out: CLH

logD (physchem) | Compound | further results
3.3 | C[C@@H](NC(=O)C1(N)CCN(c2ncnc3[nH]ccc23)CC1)c1ccc(Cl)cc1 | –
2.7 | C[C@H](NC(=O)C1(N)CCN(c2ncnc3[nH]ccc23)CC1)c1ccc(Cl)cc1 | –
– | NC1(C(=O)NCc2ccc(Cl)cc2)CCN(c2ncnc3[nH]ccc23)CC1 | hepatocyte CLint (in vitro): 15 µL/min/1e6 cells; clearance [1]: 42 mL/min/kg; bioavailability [2]: 56%; hepatocyte CLint [3]: 10 µL/min/1e6 cells; bioavailability [4]: 88%; clearance [5]: 48 mL/min/kg; hepatocyte CLint [6]: 6 µL/min/1e6 cells; Vd [7]: 0.6 L/kg; bioavailability [8]: 70%; half-life [9]: 0.8 h; half-life [10]: 2.3 h; half-life [11]: 3 h; hepatocyte CLint [12]: 19 µL/min/1e6 cells
2.4 | NC1(C(=O)N[C@@H](CCN2CCCCC2)c2ccc(Cl)cc2)CCN(c2ncnc3[nH]ccc23)CC1 (racemic) | –
2.2 | NC(=O)C(NC(=O)C1(N)CCN(c2ncnc3[nH]ccc23)CC1)c1ccc(Cl)cc1 (racemic) | –
2.4 | CN(C)C(=O)CC(NC(=O)C1(N)CCN(c2ncnc3[nH]ccc23)CC1)c1ccc(Cl)cc1 (racemic) | –
2.4 | CC(=O)NCC(NC(=O)C1(N)CCN(c2ncnc3[nH]ccc23)CC1)c1ccc(Cl)cc1 (racemic) | –
2.2 | NC1(C(=O)NC(CS(N)(=O)=O)c2ccc(Cl)cc2)CCN(c2ncnc3[nH]ccc23)CC1 (racemic) | –
2.1 | CS(=O)(=O)NCC(NC(=O)C1(N)CCN(c2ncnc3[nH]ccc23)CC1)c1ccc(Cl)cc1 (racemic) | –
2.2 | CS(=O)(=O)NCCC(NC(=O)C1(N)CCN(c2ncnc3[nH]ccc23)CC1)c1ccc(Cl)cc1 (racemic) | –
2.4 | NC1(C(=O)NC(CO)c2ccc(Cl)cc2)CCN(c2ncnc3[nH]ccc23)CC1 (racemic) | –
2.8 | NC1(C(=O)NC(CCCO)c2ccc(Cl)cc2)CCN(c2ncnc3[nH]ccc23)CC1 (racemic) | –
3 | COCCC(NC(=O)C1(N)CCN(c2ncnc3[nH]ccc23)CC1)c1ccc(Cl)cc1 (racemic) | –
3.5 | CCC(NC(=O)C1(N)CCN(c2ncnc3[nH]ccc23)CC1)c1ccc(Cl)cc1 (racemic) | –
3.4 | NC1(C(=O)NC(c2ccc(Cl)cc2)C2CC2)CCN(c2ncnc3[nH]ccc23)CC1 (racemic) | –
4.1 | NC1(C(=O)NC(c2ccccc2)c2ccc(Cl)cc2)CCN(c2ncnc3[nH]ccc23)CC1 (racemic) | –
2.2 | CC(NC(=O)C1(N)CCN(c2ncnc3[nH]ccc23)CC1)c1ccccc1 (racemic) | –
2.4 | CC(NC(=O)C1(N)CCN(c2ncnc3[nH]ccc23)CC1)c1ccc(F)cc1 (racemic) | –
1.3 | CC(NC(=O)C1(N)CCN(c2ncnc3[nH]ccc23)CC1)c1ccccn1 (racemic) | –
1 | CC(NC(=O)C1(N)CCN(c2ncnc3[nH]ccc23)CC1)c1ccc(S(C)(=O)=O)cc1 (racemic) | –
1.8 | COc1ccc(C(C)NC(=O)C2(N)CCN(c3ncnc4[nH]ccc34)CC2)cc1OC (racemic) | –
1.4 | CN(C)CCCC(NC(=O)C1(N)CCN(c2ncnc3[nH]ccc23)CC1)c1ccc(Cl)cc1 (racemic) | –
1.3 | NC1(C(=O)NC(CCCN2CCCC2)c2ccc(Cl)cc2)CCN(c2ncnc3[nH]ccc23)CC1 (racemic) | –
2.7 | NC1(C(=O)NC(CCCN2CCOCC2)c2ccc(Cl)cc2)CCN(c2ncnc3[nH]ccc23)CC1 (racemic) | –
2.7 | CC(NC(=O)C1(N)CCN(c2ncnc3[nH]ccc23)CC1)c1ccc(Cl)cc1 (racemic) | –

Source: ChEMBL document CHEMBL2321772 (J Med Chem, 2013)
